This is an account of results in patent US20250339391A1, “METHODS FOR EFFECTIVE MANAGEMENT OF PAIN” (South Rampart Pharma, Inc., priority 2024, published 2025).

Structures are written as SMILES.

This data set in a line: LC-MS/MS detection of D10-SRP-001 in rat brain (PAG). Format: in vivo. The following applies: 30 min after IP injection. The protocol: Deuterated compound D10-SRP-001 was synthesized by Olon Ricerca Bioscience (Concord, OH), and purity was determined to be >99.9% by HPLC. This was used as pure analytical standard for detection of SRP-001 using an LC-MS/MS method. Similarly, pure analytical standard of AM404 (10 ng/mL) obtained from Cayman Chemical (Ann Arbor, MI) was used to characterize the full fragmentation pattern of AM404. […] Thirty min post-injection, the animals were sacrificed (same as in the CFA/von Frey model), their brains harvested, and the midbrain periaqueductal gray (PAG) region excised. SRP-001 or AM404 were extracted from the PAG using a liquid-liquid extraction method using 1:1 MeOH:H2O for LC-MS/MS and were loaded onto a liquid chromatography-tandem mass spectrophotometer for analysis. The mass spectrophotometer was operated in multiple reaction monitoring (MRM) mode using positive ion electrospray. D10-SRP-001 was detected by monitoring the m/z transition 416→186. AM404 was detected by monitoring the m/z transition 396→287.

Consider `[2H]C([2H])([2H])C([2H])([2H])N(C(=O)c1ccccc1S(=O)(=O)NCC(=O)Nc1ccc(O)cc1)C([2H])([2H])C([2H])([2H])[2H]` [D10-SRP-001], for which the “detection in the brain” value is “detected in the brain”.
